The target in assay [1] is T1, ctdWDR91 (Homo sapiens, UniProt A4D1P6).
T1 sequence (A4D1P6 392-747): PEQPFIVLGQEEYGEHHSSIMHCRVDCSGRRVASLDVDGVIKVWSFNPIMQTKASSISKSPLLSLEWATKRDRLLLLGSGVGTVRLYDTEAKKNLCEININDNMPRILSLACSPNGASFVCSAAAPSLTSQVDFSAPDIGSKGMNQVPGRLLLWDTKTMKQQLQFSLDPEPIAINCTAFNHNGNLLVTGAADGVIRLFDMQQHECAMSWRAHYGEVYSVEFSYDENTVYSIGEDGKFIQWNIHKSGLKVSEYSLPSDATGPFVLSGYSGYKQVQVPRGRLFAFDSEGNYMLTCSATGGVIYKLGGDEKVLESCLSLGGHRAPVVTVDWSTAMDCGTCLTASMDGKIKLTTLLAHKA
Nature of the assay: biochemical.

For assay [2], the target named is T1, ctdWDR91. The following applies: at saturation (0-200 uM series), 2 h pre-incubation; covalent.

A value given as a limit tells only on which side of the number the result lay.

Among the data in paper doi:10.1101/2023.08.21.552681v1 (biorxiv, 2023) are Kd and DSF_delta_Tm_ values, retold here.

Broadly, the Kd is the constant that tells how readily two partners part at equilibrium.

In assay [1], `O=C(NC1(c2ccc(Cl)cc2)COC1)c1cccc(N2CCCC2)c1` [DRGG001982a] yielded a dissociation constant (Kd) of more than 45 µM.
Same read-out and setting: in the case of `CC1CCN(c2ccc(C(=O)NC3(c4ccc(F)cc4)CC3)cc2)C1` (stereo not drawn) [DRGG002016a] it was more than 45 µM; in that of `O=C(NC1(c2ccc(Cl)cc2)COC1)c1cncc2cnccc12` [DRGG001948a], more than 45 µM.
Compound `O=C(NC1(c2ccc(Cl)cc2)CC1)c1ccc(N2CCC(O)C2)cc1` (stereo not drawn) [DRGG001980a] came in with a dissociation constant Kd in assay [1] of more than 20 µM.
`O=C(NCC1CCN(c2ccc(F)cc2)C1)NCC1(c2ccc(Cl)cc2)CC1` (stereo not drawn) [DRGG002008a] displayed a dissociation constant Kd in assay [1] of more than 45 µM.
Same read-out and setting: in the case of `NC(=O)C1CCCN(c2ccc(C(=O)NC(c3ccc(Cl)cc3)C3CC3)cc2)C1` (stereo not drawn) [DRGG001957a] it was 16 µM; in that of `N#CC1(c2ccc(C(=O)NCC3CCN(c4ccc(Cl)cc4)C3)cc2)CC1` (stereo not drawn) [DRGG001993a], more than 45 µM; in that of `O=C(NCC1CCN(c2ccc(Cl)cc2)C1)N1CC(O)(c2ccc(F)cc2)C1` (stereo not drawn) [DRGG002007a], more than 45 µM.
`C=CC(=O)N1CCCc2c(C(=O)NC(c3ccc(Cl)cc3)C3CC3)cccc21` (stereo not drawn) [DRTR002365a] yielded a DSF_delta_Tm_ in assay [2] of 4 °C.
In the case of `C=CC(=O)N1CCCc2c(C(=O)NC3(c4ccc(Cl)cc4)COC3)cccc21` [MRTR046654a], the DSF_delta_Tm_ in assay [2] amounted to 4 °C.
Consider `O=C(NCC1CCN(c2ccc(F)cc2)C1)c1ccc(N2CCC(O)C2)cc1` (stereo not drawn) [DRGG001938a], for which, in assay [1], the Kd was more than 45 µM.
Still for that read-out and setting: with `O=C(NC1(c2ccc(Cl)cc2)COC1)c1ccc(N2CCCC2)cc1` [DRGG001988a] the figure was more than 45 µM; with `O=C(NCC1CCN(c2ccc(Cl)cc2)C1)c1ccc(CN2CCOCC2)cc1` (stereo not drawn) [DRGG001983a], more than 45 µM.
Turning to `Nc1ncnc2cc(C(=O)NC3(c4ccc(Cl)cc4)COC3)ccc12` [DRGG001943a], in assay [1], the affinity, expressed as Kd, was 37 µM.
The same measure, in the same setting: with `O=C(NCc1ccc2nsnc2c1)c1ccc(N2CCC(O)C2)cc1` (stereo not drawn) [DRGG002011a] the figure was 12 µM; with `O=C(CNC(=O)c1ccc(N2CCC(O)C2)cc1)OCc1ccc(Cl)cc1` (stereo not drawn) [DRGG002006a], more than 45 µM; with `O=C(NC1CCc2cc(Cl)ccc21)c1ccc(N2CCC(O)C2)cc1` (stereo not drawn) [DRGG001981a], more than 45 µM.
`C[C@@H](NC(=O)c1ccc(N2CCC(O)C2)cc1)c1ccc2c(c1)CCCC2` (stereo partly drawn) [DRGG001990a] displayed a Kd in assay [1] of more than 45 µM.
The same measure, in the same setting: in the case of `O=C1CCC(c2ccc(C(=O)NC3CCN(c4ccc(Cl)cc4)C3)cc2)N1` (stereo not drawn) [DRGG001984a] it was more than 45 µM.
The same measure, in the same setting: in the case of `O=C(Nc1cccc2c1CN(C1CC1)C2)c1ccc(N2CCC(O)C2)cc1` (stereo not drawn) [DRGG001985a] it was more than 45 µM; in that of `O=C(NCC1CCN(c2ccc(Cl)cc2)C1)c1cccc(C2(O)COC2)c1` (stereo not drawn) [DRGG001996a], more than 45 µM; in that of `O=C(NC1CC2(CCC2)Oc2ccccc21)c1ccc(N2CCC(O)C2)cc1` (stereo not drawn) [DRGG001975a], more than 45 µM.
`O=C(NCC1CCN(c2ccc(Cl)cc2)C1)c1ccc(C2CCCOC2)cc1` (stereo not drawn) [DRGG001987a] returned a Kd in assay [1] of more than 45 µM.
As to `O=C(NCC1CCN(c2ccc(Cl)cc2)C1)c1ccc(OC2CCOC2)cc1` (stereo not drawn) [DRGG001945a], the Kd in assay [1] was more than 45 µM.
Same read-out and setting: with `O=C(NCC1CCN(c2ccc(Cl)cc2)C1)NC1(c2ccc(F)cc2)CC1` (stereo not drawn) [DRGG002005a] the figure was more than 45 µM; with `O=C(Nc1cccc2cnccc12)c1ccc(N2CCC(O)C2)cc1` (stereo not drawn) [DRGG001979a], more than 45 µM; with `NC(=O)C1CCCN(c2ccc(C(=O)NC(CCO)c3ccc(Cl)cc3)cc2)C1` (stereo not drawn) [DRGG001997a], 22 µM.
The same measure, in the same setting: in the case of `O=C(NCC1CCN(Cc2ccccc2)C1)c1ccc(N2CCC(O)C2)cc1` (stereo not drawn) [DRGG001968a] it was more than 45 µM.
Same read-out and setting: with `O=C1Cc2c(cccc2C(=O)NC2(c3ccc(Cl)cc3)COC2)N1` [DRGG001947a] the figure was more than 45 µM.
In assay [1], `Cc1nc2sccn2c1C(=O)NC1(c2ccc(Cl)cc2)COC1` [DRGG001989a] yielded a Kd of more than 45 µM.
With `O=C(NC1(c2ccc(Cl)cc2)COC1)c1ccc2c(c1)NC(=O)C1CCCN21` (stereo not drawn) [DRGG002018a], the equilibrium dissociation constant (Kd) in assay [1] was more than 45 µM.
Still for that read-out and setting: in the case of `O=C(N[C@@H]1CC2(CCC2)Oc2ccc(F)cc21)c1ccc(N2CCC(O)C2)cc1` (stereo partly drawn) [DRGG001964a] it was more than 45 µM; in that of `O=C(NC1CCN(c2ccc(F)cc2)C1)c1ccc(Cl)cc1` (stereo not drawn) [DRGG001976a], more than 45 µM; in that of `O=C(NC1CCN(c2ccc(Cl)cc2)C1)c1ccc(N2CCC(O)C2)cc1` (stereo not drawn) [DRGG001963a], more than 45 µM.
Still for that read-out and setting: in the case of `O=C(NC1(Cc2ccccc2)COC1)c1ccc(N2CCC(O)C2)cc1` (stereo not drawn) [DRGG001952a] it was more than 45 µM; in that of `O=C(NC1(c2ccc(Cl)cc2)COC1)c1ccc(OCC2CC2)cc1` [DRGG001971a], more than 45 µM; in that of `O=C(NOCc1ccc(Cl)cc1)c1ccc(N2CCC(O)C2)cc1` (stereo not drawn) [DRGG002010a], more than 45 µM.
Still for that read-out and setting: in the case of `O=C(NCCc1ccc(Cl)cc1)c1ccc(N2CCC(O)C2)cc1` (stereo not drawn) [DRGG001935a] it was more than 45 µM.
In turn, `O=C(NC1CCN(c2ccc(Cl)cc2)C1)c1ccc(CN2CCCC2=O)cc1` (stereo not drawn) [DRGG001992a] showed a Kd in assay [1] of more than 45 µM.
Still for that read-out and setting: in the case of `O=C(NC(CCO)c1ccc(Cl)cc1)c1ccc(N2CCC(O)C2)cc1` (stereo not drawn) [DRGG001961a] it was 14 µM.
The same measure, in the same setting: with `O=C(NC1(c2ccc(Cl)cc2)COC1)c1ccc(CC2CC2)cc1` [DRGG001970a] the figure was more than 45 µM; with `O=C(NCC1CCN(c2ccc(F)cc2)C1)C1(c2ccc(Cl)cc2)CCOCC1` (stereo not drawn) [DRGG001995a], more than 45 µM; with `CC1CCN(c2ccc(C(=O)NC3(C)Cc4ccccc4C3)cc2)C1` (stereo not drawn) [DRGG001937a], more than 45 µM.
The same measure, in the same setting: in the case of `CC1CCN(c2ccc(C(=O)NCC3(c4ccc(F)cc4)CC3)cc2)C1` (stereo not drawn) [DRGG001965a] it was more than 45 µM.
For `O=C(NC1CCN(c2ccc(Cl)cc2)C1)c1ccc(C2(O)COC2)cc1` (stereo not drawn) [DRGG001966a], the Kd in assay [1] is more than 45 µM.
Still for that read-out and setting: with `O=C(N[C@@H]1C[C@H]1c1ccc(Cl)cc1)c1ccc(N2CCC(O)C2)cc1` (stereo partly drawn) [DRGG001986a] the figure was more than 45 µM; with `CC1(NC(=O)c2ccc(N3CCC(O)C3)cc2)CCN(C(=O)OC(C)(C)C)C1` (stereo not drawn) [DRGG002003a], more than 45 µM.
As to `O=C(NCC1CCN(c2ccc(Cl)cc2)C1)c1ccc(C2(O)COC2)cc1` (stereo not drawn) [DRGG001959a], the Kd in assay [1] was more than 45 µM.
The compound `CC(NC(=O)c1ccc(N2CCC(O)C2)cc1)c1cccc(N2CCCC2)c1` (stereo not drawn) [DRGG001998a] returned a dissociation constant (Kd) in assay [1] of more than 45 µM.
The same measure, in the same setting: with `O=C(NC1CC1)c1ccc(C(=O)NC2CCN(c3ccc(Cl)cc3)C2)cc1` (stereo not drawn) [DRGG002012a] the figure was more than 45 µM; with `C=CC(=O)N1CCCc2c(C(=O)NC(c3ccc(F)cc3)C3CCCCC3)cccc21` (stereo not drawn) [DRTR002366a], more than 45 µM.
On the same count and under the same terms, in the case of `O=C(N[C@@H]1CCN(C2CC2)[C@H]1c1ccccc1)c1ccc(N2CCC(O)C2)cc1` (stereo partly drawn) [DRGG001958a] it was more than 45 µM; in that of `O=C(NC1CCN(c2ccc(Cl)cc2)C1)c1ccc2c(c1)CC2` (stereo not drawn) [DRGG001973a], more than 45 µM.
On the same count and under the same terms, in the case of `CC1CCN(c2ccc(C(=O)NC3(Cc4cccc(F)c4)CC3)cc2)C1` (stereo not drawn) [DRGG002009a] it was more than 45 µM; in that of `NC(=O)c1ccc(C2(C(=O)NCC3CCN(c4ccc(Cl)cc4)C3)CC2)cc1` (stereo not drawn) [DRGG002017a], more than 45 µM.
Take `O=C(NCC1CCN(c2ccc(Cl)cc2)C1)c1ccc(F)cc1` (stereo not drawn) [DRGG001950a]: the Kd in assay [1] was more than 45 µM.
On the same count and under the same terms, in the case of `O=C(NCCOc1ccc(Cl)cc1)c1ccc(N2CCC(O)C2)cc1` (stereo not drawn) [DRGG002013a] it was more than 45 µM.
